Laboratory results as given in patent US20180071317A1, “USE OF AGENTS THAT ALTER THE PERITUMORAL ENVIRONMENT FOR THE TREATMENT OF CANCER” (SERVICIO ANDALUZ DE SALUD, priority 2011, published 2018).

Legend:
[1] = system: fibroblasts (PHF) co-cultured with human neuroblastoma tumor cells (KELLY); test: Marker expression (IHC) in PHF co-cultured with KELLY tumor cells; assay type: cell-based; details: PHF co-cultured with KELLY + SP + NK1 antagonist;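 note: Co-cultures grown on healthy-donor human blood plasma, run in six replicates, value is percentage of fibroblasts positive for each marker, compared with fibroblasts cultured alone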
Description: (§1) All cultures were maintained 48 hours, following which the same cells were included in paraffin blocks for subsequent analysis of the expression of different markers by immunohistochemistry (see Example 1). […] All experiments were carried out sixfold. Analyzed markers in fibroblast cells (stromal cells) were: TGF-α, TGF-β1, TGF-β2, TGF-β3, SPARC, MMP-3, MMP-7, MMP-9, MMP-11, MMP-13 and MMP-14.

[2] = system: fibroblasts (PHF) co-cultured with tumor cells in human prostate carcinoma (22Rv1); test: Marker expression (IHC) in PHF co-cultured with 22Rv1 tumor cells; assay type: cell-based; details: co-culture with 22Rv1; SP 1 μM + antagonist 1 μM; 48 h;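 note: cultures grown on fresh plasma from a healthy donor, each experiment run sixfold, values give the percentage of fibroblasts positive for the given marker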
Description: as §1

[3] = system: fibroblasts (PHF) co-cultivated with tumor cell carcinoma of urinary bladder (5637); test: Marker expression (IHC) in PHF co-cultured with 5637 tumor cells; assay type: cell-based, human; details: co-culture with 5637; SP 1 μM + antagonist 1 μM; 48 h
Description: as §1

[4] = system: fibroblasts of tumors produced by human glioma tumor line (GAMG); test: Marker expression (IHC) in fibroblasts of tumor or peritumoral area, mouse model, GAMG; assay type: in vivo; details: GAMG tumors in mice, 30 mg/kg/day oral, 7 days
Description: In vitro tests conducted in Example 5 are now carried out in an experimental model in mice in vivo. […] Subsequently, the expression in fibroblasts tumoral and peritumoral area of molecular markers associated with progression and maintenance of tumors: TGF-α, TGF-β1, TGF-β2, TGF-β3, MMP-7, MMP-11, MMP-14 were analyzed by immunohistochemistry.
Were injected with 2×10^7 cells tumors (corresponding, in each case to each of the tumor types as specified in Table 9) in 200 of PBS subcutaneously μl. […] Mice were randomized into two groups when the tumors reached a volume of 75 mm^3 One group was treated with non-peptide receptor antagonists NK1 and the other with placebo 200μ1. […] Tumors and samples of non-neoplastic stromal areas remote from the tumor were halved, formalin fixed (4%) and then were included in paraffin blocks for analysis by immunohistochemistry.
The expression on fibroblast cells obtained in the animal model was analyzed by immunohistochemistry, of the above markers: TGF-α, TGF-β1, TGF-β2, TGF-β3, MMP-7, MMP-1 1, MMP-14MP-14. Tables 32 to 35 depict the type of label used and the average percentage of fibroblasts present in non-tumor areas, tumor and peritumoral (±SD) which were expressing the marker shown in each of the tumor types developed from of the different cell lines used. This process was realized in mice treated with non-peptide antagonists of NK1 receptor and in untreated animals (control).

[5] = system: human primary fibroblasts (PHF); test: Marker expression (immunohistochemistry) in human primary fibroblasts with SP alone or with NK1 antagonists; assay type: cell-based; details: SP 1 μM + antagonist 1 μM; 48 h;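 note: primary human dermal fibroblasts, immunostained with rabbit polyclonal antibodies against each marker, value is percentage of stained cells among all cells counted in 20 fields at 400× per section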
Description: These PHF were obtained and purified from samples obtained from the dermis of the skin of healthy volunteers as described in De Bari et al (De Bari et al. 2001). Briefly, small pieces of skin dermis were digested in a solution of hyaluronidase (Sigma-Aldrich, USA) at a concentration of 1 mg/ml for 15 minutes at 37° C. and then treated with 6 mg/ml collagenase type IV (Invitrogen) for 2 hours at 37° C. Then, the cells were washed, resuspended in DMEM culture medium with high glucose (Dulbecco's Modified Eagle's Medium, Invitrogen) supplemented with 1% antibiotic-antimycotic (Invitrogen) and 1% pyruvate Sodium (Invitrogen), and seeded in culture dishes at a concentration of 10,000 cells per square centimeter. When the cells reached confluence, adherent cells were detached using 0.5% sterile trypsin (Invitrogen) and used between passages 3 and 9. For tests shown below, the PHF were plated in 24-well plates at a concentration of 25,000 cells per well.
After 48 hours of culture, cells were harvested and paraffin cell-blocks for immunohistochemical analysis were constructed, as previously explained in Example 1.
In immunohistochemical assays the expression of the following markers were studied: TGFα (SAB4502953), TGF1 (SAB4502954), TGFβ2 (SAB4502956), TGFβ3 (SAB4502957), SPARC (HPA002989), MMP-3 (HPA007875) MMP-7 (SAB4501894), MMP-9 (SAB4501896), MMP-11 (SAB4501898), MMP-13 (SAB4501900) and MMP-14 (SAB4501901) using specific antibodies against them. All antibodies used were rabbit polyclonal antibodies obtained from Sigma-Aldrich and were used at a concentration of 1/1000. All experiments were carried out sixfold.
On each of the six sections cell counts were performed in 20 high power fields (400×) through an Olympus microscope (model CX31) to assess the immunostaining. On each of the fields total cell number and number of cells displaying immunostaining were counted, being then the percentage of cells displaying said immunostaining.

mononuclear cells = test: Marker expression (immunohistochemistry) in mononuclear blood cells with SP alone or with NK1 antagonists; assay type: cell-based, human; details: SP 1 μM + antagonist 1 μM; 48 h
Description: Briefly, heparinized blood from healthy donors was centrifuged so as to separate the various components thereof. Red blood cells remained at the bottom of the tube. Above them was a small white layer composed of the white blood cells and above, on top of the tube, the blood plasma. The layer of white cells was distributed in a culture plate of 24 wells by adding in each the same concentration of blood plasma from the same donor, supplemented with 1% antibiotic-antimycotic (Invitrogen). In each well, approximately 1000 cells (PHF) skin from the dermis were further added, obtained as previously described in Example 2. […] After 48 hours of incubation, cells were collected and embedded in paraffin for expression analysis by immunohistochemical techniques (as described in Example 1).
The expression of TGF molecular markers (anti-TGF 2, SAB4502956) and NF-kB (anti-NF-kB, SAB4501992) using specific antibodies against them were analyzed. All antibodies used were rabbit polyclonal antibodies obtained from Sigma Aldrich and were used at a concentration of 1/1000. All experiments were carried out sixfold.

[6] = system: fibroblasts (PHF) co-cultured with tumor cells of human breast carcinoma (MCF-7); test: Marker expression (IHC) in PHF co-cultured with MCF-7 tumor cells; assay type: cell-based; details: co-culture with MCF-7; SP 1 μM + antagonist 1 μM; 48 h;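 note: value is the percentage of fibroblasts positive for each marker, with fibroblasts cultured alone as reference, grown in fresh plasma from a healthy donor, six replicates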
Description: as §1

[7] = system: fibroblasts (PHF) co-cultured with human choriocarcinoma tumor cells (AC-1M32); test: Marker expression (IHC) in PHF co-cultured with AC-1M32 tumor cells; assay type: cell-based; details: co-culture with AC-1M32; SP 1 μM + antagonist 1 μM; 48 h;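 note: Read-out is the percentage of PHF fibroblasts positive for each marker, with cells grown in fresh healthy-donor blood plasma, six replicates, reference being fibroblasts cultured alone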
Description: as §1

Cc1cc(F)ccc1[C@H]1CNCCN1C(=O)N(C)[C@H](C)c1cc(C(F)(F)F)cc(C(F)(F)F)c1 [Vestipitant]
0%: cells expressing MMP-3 [1] | cells expressing MMP-7 [1] | cells expressing MMP-9 [1] | cells expressing MMP-11 [1] | cells expressing MMP-13 [1] | cells expressing MMP-14 [1] | cells expressing SPARC [1] | cells expressing TGF-α [1] | cells expressing TGF-β1 [1] | cells expressing TGF-β2 [1] | cells expressing TGF-β3 [1] | PHF cells expressing MMP-3 [2] | PHF cells expressing MMP-7 [2] | PHF cells expressing MMP-9 [2] | PHF cells expressing MMP-11 [2] | PHF cells expressing MMP-13 [2] | PHF cells expressing MMP-14 [2] | PHF cells expressing SPARC [2] | PHF cells expressing TGF-α [2] | PHF cells expressing TGF-β1 [2] | PHF cells expressing TGF-β2 [2] | PHF cells expressing TGF-β3 [2] | PHF cells expressing MMP-3 [3] | PHF cells expressing MMP-7 [3] | PHF cells expressing MMP-9 [3] | PHF cells expressing MMP-11 [3] | PHF cells expressing MMP-13 [3] | PHF cells expressing MMP-14 [3] | PHF cells expressing SPARC [3] | PHF cells expressing TGF-α [3] | PHF cells expressing TGF-β1 [3] | PHF cells expressing TGF-β2 [3] | PHF cells expressing TGF-β3 [3] | fibroblasts expressing MMP-7 [4] | fibroblasts expressing MMP-11 [4] | fibroblasts expressing MMP-14 [4] | fibroblasts expressing TGF-α [4] | fibroblasts expressing TGF-β 1 [4] | fibroblasts expressing TGF-β 2 [4] | fibroblasts expressing TGF-β 3 [4] | PHF cells expressing MMP-3 [5] | PHF cells expressing MMP-7 [5] | PHF cells expressing MMP-9 [5] | PHF cells expressing MMP-11 [5] | PHF cells expressing MMP-13 [5] | PHF cells expressing MMP-14 [5] | PHF cells expressing SPARC [5] | PHF cells expressing TGFα [5] | PHF cells expressing TGFβ 1 [5] | PHF cells expressing TGFβ 2 [5] | PHF cells expressing TGFβ 3 [5] | mononuclear cells expressing NF-kB (mononuclear cells) | mononuclear cells expressing TGF-β (mononuclear cells) | PHF cells expressing MMP-3 [6] | PHF cells expressing MMP-7 [6] | PHF cells expressing MMP-9 [6] | PHF cells expressing MMP-11 [6] | PHF cells expressing MMP-13 [6] | PHF cells expressing MMP-14 [6] | PHF cells expressing SPARC [6] | PHF cells expressing TGF-α [6] | PHF cells expressing TGF-β1 [6] | PHF cells expressing TGF-β2 [6] | PHF cells expressing TGF-β3 [6] | PHF cells expressing MMP-3 [7] | PHF cells expressing MMP-7 [7] | PHF cells expressing MMP-9 [7] | PHF cells expressing MMP-11 [7] | PHF cells expressing MMP-13 [7] | PHF cells expressing MMP-14 [7] | PHF cells expressing SPARC [7] | PHF cells expressing TGF-α [7] | PHF cells expressing TGF-β1 [7] | PHF cells expressing TGF-β2 [7] | PHF cells expressing TGF-β3 [7]
